The target in assay [1] is T1, rat adrenergic α1A receptor (Rattus norvegicus, UniProt P43140).
T1 construct: rat adrenergic α1A receptor obtained from Wistar Rat submaxillary glands; from tissue; host or cells: Wistar rat submaxillary glands
T1 sequence (P43140 1-466): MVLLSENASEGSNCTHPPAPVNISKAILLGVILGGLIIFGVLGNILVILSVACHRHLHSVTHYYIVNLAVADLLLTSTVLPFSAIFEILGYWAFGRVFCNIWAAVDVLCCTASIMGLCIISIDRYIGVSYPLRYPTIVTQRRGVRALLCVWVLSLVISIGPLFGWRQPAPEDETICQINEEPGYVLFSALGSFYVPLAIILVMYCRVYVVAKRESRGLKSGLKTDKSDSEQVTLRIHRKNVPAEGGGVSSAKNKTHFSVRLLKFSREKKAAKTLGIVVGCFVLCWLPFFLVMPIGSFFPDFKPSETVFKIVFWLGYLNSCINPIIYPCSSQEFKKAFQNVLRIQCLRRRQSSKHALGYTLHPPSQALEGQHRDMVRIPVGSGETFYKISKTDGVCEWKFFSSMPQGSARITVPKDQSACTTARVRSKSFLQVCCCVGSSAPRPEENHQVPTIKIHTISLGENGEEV
As to the kind of experiment: Adrenergic α1A radioligand binding ([3H]Prazosin). The settings on record: compound at 0.1 μM; read-out: Percentage inhibition of ligand binding, Adrenergic (0.1 μM) α1A. As to the method:
To evaluate in radioligand binding assays the activity of compounds of the invention, rat adrenergic α1A receptor obtained from Wistar Rat submaxillary glands (Michel, A. et al, Br. J. Pharmacol. 98:883, 1989) in a modified Tris-HCl buffer (50 mM Tris-HCl buffer, pH 7.4, 0.5 mM EDTA) was used. Compounds of the invention were incubated with 0.25 nM [^3H]Prazosin for 60 min at 25° C. Non-specific binding was estimated in the presence of 10 μM phentolamine. Receptor proteins were filtered and washed, the filters were then counted to determine [^3H]Prazosin specifically bound. Compounds of the invention were screened at 1 μM or lower, using 1% DMSO as vehicle. Biochemical assay results are presented as the percent inhibition of specific binding in Table 3.

For assay [2], the target named is T2, human recombinant dopamine D2L receptor (Homo sapiens, UniProt P14416).
T2 construct: expressed in transfected cells; host or cells: CHO
As to the kind of experiment: Dopamine D2L radioligand binding ([3H]Spiperone). Conditions: compound at 1 μM; read-out: Percentage inhibition of ligand binding, Dopamine (1 μM) D2L. As to the method:
To evaluate in radioligand binding assays the activity of compounds of the invention, human recombinant dopamine D2L receptor expressed in Chinese hamster ovary (CHO) cells (Grandy, D. et al, Proc. Natl. Acad. Sci. USA. 86:9762, 1989; Hayes, G. et al, Mol. Endocrinol. 6:920, 1992) in a modified Tris-HCl buffer (50 mM Tris-HCl, pH 7.4, 1.4 mM Ascorbic Acid, 0.001% BSA, 150 mM NaCl) was used. Compounds of the invention were incubated with 0.16 nM [^3H]Spiperonefor 120 min at 25° C. Non-specific binding was estimated in the presence of 10 μM Haloperidol. Receptor proteins were filtered and washed, the filters were then counted to determine [^3H]Spiperone specifically bound. Compounds were screened at 1 μM or lower, using 1% DMSO as vehicle. Biochemical assay results are presented as the percent inhibition of specific binding in Table 3.

For assay [3], the target named is T3, human recombinant adrenergic α2C receptor (Homo sapiens, UniProt P18825).
T3 construct: expressed in transfected cells; host or cells: insect Sf9 cells
T3 sequence (P18825 1-462): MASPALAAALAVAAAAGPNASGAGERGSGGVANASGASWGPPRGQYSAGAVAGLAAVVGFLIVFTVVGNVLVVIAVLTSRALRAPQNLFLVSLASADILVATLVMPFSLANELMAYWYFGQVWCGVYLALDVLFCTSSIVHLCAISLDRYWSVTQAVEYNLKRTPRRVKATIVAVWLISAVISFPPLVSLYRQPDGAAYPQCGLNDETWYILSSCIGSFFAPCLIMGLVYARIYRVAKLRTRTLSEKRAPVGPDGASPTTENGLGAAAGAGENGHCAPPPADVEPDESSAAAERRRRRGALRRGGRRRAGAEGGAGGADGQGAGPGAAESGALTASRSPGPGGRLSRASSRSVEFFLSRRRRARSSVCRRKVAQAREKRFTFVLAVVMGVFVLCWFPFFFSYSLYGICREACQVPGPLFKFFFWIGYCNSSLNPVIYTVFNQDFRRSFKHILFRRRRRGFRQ
Nature of the assay: Adrenergic α2C radioligand binding ([3H]MK-912). The settings on record: compound at 0.1 μM; read-out: Percentage inhibition of ligand binding, Adrenergic (0.1 μM) α2C. As to the method:
To evaluate in radioligand binding assays the activity of compounds of the invention, human recombinant adrenergic α2C receptor expressed in insect Sf9 cells (Uhlen, S. et al, J. Pharmacol. Exp. Ther. 271:1558, 1994) in a modified Tris-HCl buffer (50 mM Tris-HCl, pH 7.4, 12.5 mM MgCl2, 2 mM EDTA) was used. Compounds of the invention were incubated with 1 nM [^3H]MK-912 for 60 min at 25° C. Non-specific binding was estimated in the presence of 10 μM WB-4101. Receptor proteins were filtered and washed, the filters were then counted to determine [^3H]MK-912 specifically bound. Compounds were screened at 1 μM or lower, using 1% DMSO as vehicle. Biochemical assay results are presented as the percent inhibition of specific binding in Table 3.

Assay [4] deals with T4, human recombinant histamine H1 receptor (Homo sapiens, UniProt P35367).
T4 construct: expressed in transfected cells; host or cells: CHO-K1
Nature of the assay: Histamine H1 radioligand binding ([3H]Pyrilamine). Conditions: compound at 0.1 μM; 1.2 nM [3H]Pyrilamine; read-out: Binding data (Percentage inhibition) Histamine H1 (0.1 μM). The protocol:
To evaluate in radioligand binding assays the activity of compounds of the invention, human recombinant histamine H1 receptor expressed in Chinese hamster ovary (CHO) K1 cells (De Backer, M. et al, Biochem. Biophys. Res. Comm. 197(3):1601, 1993) in a modified Tris-HCl buffer (50 mM Tris-HCl, pH 7.4, 2 mM MgCl2, 100 mM NaCl, 250 mM Sucrose) was used. Compounds of the invention were incubated with 1.2 nM [^3H]Pyrilamine for 180 min at 25° C. Non-specific binding was estimated in the presence of 1 μM Pyrilamine. Receptor proteins were filtered and washed, the filters were then counted to determine [^3H]Pyrilamine specifically bound. Compounds were screened at 1 μM or lower, using 1% DMSO as vehicle. Biochemical assay results are presented as the percent inhibition of specific binding in Table 2.

T4 sequence (P35367 whole entry): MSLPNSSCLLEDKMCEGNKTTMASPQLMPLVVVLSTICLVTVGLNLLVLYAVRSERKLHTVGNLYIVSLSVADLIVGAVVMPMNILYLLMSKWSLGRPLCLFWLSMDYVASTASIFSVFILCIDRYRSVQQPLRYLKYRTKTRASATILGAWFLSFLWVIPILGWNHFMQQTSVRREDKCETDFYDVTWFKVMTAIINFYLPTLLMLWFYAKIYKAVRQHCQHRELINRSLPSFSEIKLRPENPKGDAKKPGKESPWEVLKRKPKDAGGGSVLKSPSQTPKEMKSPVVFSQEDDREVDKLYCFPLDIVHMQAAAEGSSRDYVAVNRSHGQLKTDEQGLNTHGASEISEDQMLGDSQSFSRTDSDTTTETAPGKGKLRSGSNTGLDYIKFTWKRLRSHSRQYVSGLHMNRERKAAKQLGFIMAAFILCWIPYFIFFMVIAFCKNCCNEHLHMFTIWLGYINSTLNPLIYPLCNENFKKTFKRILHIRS
T2 sequence (P14416 whole entry): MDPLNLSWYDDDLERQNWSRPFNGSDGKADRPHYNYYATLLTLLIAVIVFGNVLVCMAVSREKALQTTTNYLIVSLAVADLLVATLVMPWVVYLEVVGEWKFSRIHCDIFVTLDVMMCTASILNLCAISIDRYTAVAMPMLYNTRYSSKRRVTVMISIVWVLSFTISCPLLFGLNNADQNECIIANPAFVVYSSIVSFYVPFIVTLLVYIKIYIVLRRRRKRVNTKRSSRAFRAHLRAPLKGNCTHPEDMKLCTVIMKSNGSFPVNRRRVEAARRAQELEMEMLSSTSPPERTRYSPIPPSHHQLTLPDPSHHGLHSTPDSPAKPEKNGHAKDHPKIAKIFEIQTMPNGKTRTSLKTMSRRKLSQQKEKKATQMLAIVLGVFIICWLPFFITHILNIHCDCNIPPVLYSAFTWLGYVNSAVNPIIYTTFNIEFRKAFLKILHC

As for `Cc1cc(-c2ccc(F)cc2)c2c(c1)c1c(n2C)CCN(C)C1` [Compound 7], the inhibition (usually the change of the read-out against control, counted positive when it falls) at 0.1 µM in assay [1] was determined as 1%; in assay [3], 8%; in assay [4] it was 6%. Moreover, the inhibition at 1 µM in assay [2] amounted to 5%.

As to `Cc1cc(C#Cc2cccs2)c2[nH]c3c(c2c1)CN(C)CC3` [Compound 8], the figures for the inhibition at 0.1 µM in assay [1], in assay [3] and in assay [4] were -5%, 7% and -3%, respectively. For the same compound, the inhibition at 1 µM in assay [2] is -1%.

With `Cc1cc(-c2ccncc2)c2c(c1)c1c(n2C)CCN(C)C1` [Compound 9], the inhibition at 0.1 µM in assay [1] was found to be 4%; in assay [3] it was 1%; in assay [4], 0%. Also, in assay [2], the inhibition at 1 µM was determined as 7%.

Take `C#Cc1cc(C)cc2c3c(n(C)c12)CCN(C)C3` [Compound 10, 6-Ethynyl-2,3,4,5-tetrahydro-2,5,8-trimethyl-1H-pyrido[4,3-b]indole]: the inhibition at 0.1 µM in assay [1] came to 6%; in assay [3] it was 36%; in assay [4], 5%. The inhibition at 1 µM in assay [2] stood at 70%.

For `C/C(=C\c1cc(C)cc2c3c(n(C)c12)CCN(C)C3)c1ccncc1` [Compound 11], the inhibition at 0.1 µM in assay [1] was -14%; in assay [3], 12%; in assay [4] it was -3%. Also, the inhibition at 1 µM in assay [2] is 28%.

On to `Cc1cc(C#Cc2ccc(C)nc2)c2c(c1)c1c(n2C)CCN(C)C1` [Compound 12, 2,3,4,5-tetrahydro-2,5,8-trimethyl-6-(2-(6-methylpyridin-3-yl)ethynyl)-1H-pyrido[4,3-b]indole], for which the inhibition at 0.1 µM in assay [1] is -12%; in assay [3], 3%; in assay [4], -14%. For the same compound, the inhibition at 1 µM in assay [2] came out at 14%.

For `Cc1cc(CCc2ccc(C)nc2)c2c(c1)c1c(n2C)CCN(C)C1` [Compound 13], the inhibition at 0.1 µM turned out to be 2% in assay [1], 2% in assay [3] and 28% in assay [4]. Besides, the inhibition at 1 µM in assay [2] was determined as 15%.

Regarding `Cc1cc(/C=C/c2ccc(C)nc2)c2c(c1)c1c(n2C)CCN(C)C1` [Compound 14], the inhibition at 0.1 µM in assay [1] was -16%; in assay [3], 1%; in assay [4], 25%. Besides, the inhibition at 1 µM in assay [2] was found to be 14%.

As to `C/C(=C\c1cc(C)cc2c3c(n(C)c12)CCN(C)C3)c1ccc(C)nc1` [Compound 15], the inhibition at 0.1 µM in assay [1] was 3%; in assay [3], -14%; in assay [4] it was 2%. Moreover, the inhibition at 1 µM in assay [2] was 3%.

Turning to `Cc1cc(C#Cc2nccs2)c2[nH]c3c(c2c1)CN(C)CC3` [Compound 16], the figures for the inhibition at 0.1 µM in assay [1], in assay [3] and in assay [4] were -1%, 5% and 9%, respectively. In addition, the inhibition at 1 µM in assay [2] is -1%.

Turning to `Cc1cc(C#Cc2ccncc2)c2c(c1)c1c(n2C)CCN(C)C1` [Compound 17], the figures for the inhibition at 0.1 µM in assay [1], in assay [3] and in assay [4] were -2%, 3% and 39%, respectively. Besides, the inhibition at 1 µM in assay [2] is 1%.

As for `Cc1ccc(C#Cc2cc(Cl)cc3c4c(n(C)c23)CCN(C)C4)cn1` [Compound 18], the inhibition at 0.1 µM worked out at 14% in assay [1], 0% in assay [3] and 12% in assay [4]. Besides, the inhibition at 1 µM in assay [2] was 7%.

For the origin of these results see patent publication US9034865B2, “Pyrido [4,3-B] indole and pyrido [3,4-B] indole derivatives and methods of use” (Medivation Technologies, Inc., priority 2010, dated 2015).
